Reference: patent publication US12491243B2, “Formulation containing TLR agonist and methods of use” (ACCESS TO ADVANCED HEALTH INSTITUTE, priority 2016, dated 2025)

Assays:
[1] = Adsorption to Alhydrogel® (aluminum oxyhydroxide): unbound material assayed in centrifuged supernatant; assay type: physicochemical; conditions: for TLR Agonist Conc. In Supernatant (T = 16 wks): storage at 5° C.; for TLR Agonist Conc. In Supernatant (T = 16 wks) / TLR Agonist Conc. In Supernatant (T = 0): the ligand itself, in combinations first value = 3M-052
Procedure: Adjuvant formulation characterization and stability. Aqueous nanosuspensions were characterized for particle size by dynamic light scattering (DLS) using the Malvern Instruments (Worcestershire, UK) Zetasizer Nano-S or —ZS. Aqueous nanosuspensions were diluted 1:10 or 1:100 fold in water in a polystyrene cuvette prior to analysis, which consisted of three measurements resulting in a scattering intensity-biased average diameter value reported as the Z-ave. Zeta potential was measured using the Zetasizer Nano-ZS using a disposable capillary cell, with nine consecutive measurements collected from each sample prepared at 1:10 dilution in water. In general, 3M-052 concentration was measured by UV absorbance at 322.5 nm after diluting formulations 1:20 into ethanol:HCl (98:2 v:v) and comparing to a standard curve. The dilution into organic solvent removes potential interference from light scattering of the nanosuspension particles. However, for the 3M-052 binding isotherm, where maximum sensitivity was desired, no dilution was performed for the samples or the standards. Alternatively, 3M-052 concentration was determined by reverse phase HPLC with charged aerosol detection. TLR9 CpG control concentration was measured by UV absorbance at 260 nm after 1:20 dilution into ethanol:HCl. GLA concentration was measured by reverse-phase HPLC with an C18 column (Atlantis T3 or Agilent XBridge) and charged aerosol detection (CAD) using a methanol:chloroform:water mobile gradient as described previously (6). To detect unbound TLR ligand, alum-containing formulations were centrifuged briefly as indicated and the supernatant assayed by UV absorbance or HPLC-CAD. Depending on experiment, centrifugation time was 2-5 min at 2,000-16,000×g. In some experiments (FIG. 2D and Table 4), to remove the influence of saline or buffer salts on the sedimentation of TLR agonists in aluminum salt preparations, aluminum salts were first centrifuged and the supernatants removed and replaced with water; this process was repeated for another wash prior to employing the aluminum salts in the binding studies.
Antigen adsorption to aluminum salts. Binding efficiency of 3M-052 and ID93 or HIV gp120 antigen to Alhydrogel® and AdjuPhos® was determined by UV-Vis Spectroscopy and SDS-PAGE with silver stain. 1-mL of formulation was prepared by mixing saline diluent, antigen, 3M-052-AF, and/or aluminum salt. To determine HIV gp120 antigen adsorption, 30 μl of sample supernatant was mixed with 10 μl of 4× reducing or non-reducing LDS Sample Buffer, following which 20-25 μl was loaded into a 10-lane SDS-PAGE gel with 15 μl of SeeBlue2 Prestained Standard. To determine ID93 adsorption, 45 μl of sample supernatant was mixed with 15 μl of 4× reducing LDS Sample Buffer, following which 25 μl was loaded into a 10-lane SDS-PAGE gel with 15 μl of SeeBlue2 Prestained Standard. The gels were run for 55 minutes at 190 V and then placed into a fixing solution of 50:40:10 EtOH:CH3COOH:H2O for overnight. […]
To determine the adsorption capacity of Alhydrogel® for 3M-052-AF, the nanosuspension at various concentrations was mixed with aluminum oxyhydroxide and allowed to sit for ˜30 min with intermittent vortexing, followed by centrifugation such that the aluminum particles pelleted. […] The adsorption stability of 3M-052-AF on Alhydrogel® over time was evaluated by assaying samples for unbound 3M-052 before and after storage at 5° C. for 16 wks. […]

[2] = imidazoquinolines such as 3M-052; reference (9); cited from earlier work
[3] = molecular target: T1, human TLR7 (Homo sapiens, UniProt Q9NYK1); conditions: in vitro; reference (5); cited from earlier work
T1 sequence (Q9NYK1 27-1049): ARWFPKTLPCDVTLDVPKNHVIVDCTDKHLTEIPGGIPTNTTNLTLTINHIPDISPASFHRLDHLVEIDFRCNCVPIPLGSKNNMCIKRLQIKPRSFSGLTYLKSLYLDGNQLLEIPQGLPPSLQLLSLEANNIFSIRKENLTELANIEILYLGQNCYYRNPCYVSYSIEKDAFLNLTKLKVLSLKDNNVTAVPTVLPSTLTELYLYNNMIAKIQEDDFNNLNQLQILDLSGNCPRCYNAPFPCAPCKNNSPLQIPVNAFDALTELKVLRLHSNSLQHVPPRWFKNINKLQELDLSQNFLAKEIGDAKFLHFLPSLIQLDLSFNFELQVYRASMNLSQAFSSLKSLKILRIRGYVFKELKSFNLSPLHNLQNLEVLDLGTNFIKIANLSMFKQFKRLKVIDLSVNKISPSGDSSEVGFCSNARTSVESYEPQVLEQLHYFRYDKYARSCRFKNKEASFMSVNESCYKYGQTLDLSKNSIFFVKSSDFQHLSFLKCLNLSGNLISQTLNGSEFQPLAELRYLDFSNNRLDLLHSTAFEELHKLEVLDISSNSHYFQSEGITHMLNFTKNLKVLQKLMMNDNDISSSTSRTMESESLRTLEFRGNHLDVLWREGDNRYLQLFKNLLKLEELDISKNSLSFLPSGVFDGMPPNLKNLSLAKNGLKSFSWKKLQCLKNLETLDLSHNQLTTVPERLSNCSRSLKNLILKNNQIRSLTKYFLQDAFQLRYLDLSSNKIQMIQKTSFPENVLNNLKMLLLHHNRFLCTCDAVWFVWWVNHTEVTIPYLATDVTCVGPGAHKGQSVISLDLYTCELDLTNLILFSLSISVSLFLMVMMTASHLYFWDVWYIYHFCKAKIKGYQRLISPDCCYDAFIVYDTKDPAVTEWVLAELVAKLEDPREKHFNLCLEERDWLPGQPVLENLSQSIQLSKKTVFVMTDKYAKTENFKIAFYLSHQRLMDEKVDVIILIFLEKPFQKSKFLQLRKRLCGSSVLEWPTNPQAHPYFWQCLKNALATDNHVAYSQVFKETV

[4] = molecular target: T2, human TLR8 (Homo sapiens, UniProt Q9NR97); conditions: in vitro; reference (5); cited from earlier work
T2 sequence (Q9NR97 27-1041): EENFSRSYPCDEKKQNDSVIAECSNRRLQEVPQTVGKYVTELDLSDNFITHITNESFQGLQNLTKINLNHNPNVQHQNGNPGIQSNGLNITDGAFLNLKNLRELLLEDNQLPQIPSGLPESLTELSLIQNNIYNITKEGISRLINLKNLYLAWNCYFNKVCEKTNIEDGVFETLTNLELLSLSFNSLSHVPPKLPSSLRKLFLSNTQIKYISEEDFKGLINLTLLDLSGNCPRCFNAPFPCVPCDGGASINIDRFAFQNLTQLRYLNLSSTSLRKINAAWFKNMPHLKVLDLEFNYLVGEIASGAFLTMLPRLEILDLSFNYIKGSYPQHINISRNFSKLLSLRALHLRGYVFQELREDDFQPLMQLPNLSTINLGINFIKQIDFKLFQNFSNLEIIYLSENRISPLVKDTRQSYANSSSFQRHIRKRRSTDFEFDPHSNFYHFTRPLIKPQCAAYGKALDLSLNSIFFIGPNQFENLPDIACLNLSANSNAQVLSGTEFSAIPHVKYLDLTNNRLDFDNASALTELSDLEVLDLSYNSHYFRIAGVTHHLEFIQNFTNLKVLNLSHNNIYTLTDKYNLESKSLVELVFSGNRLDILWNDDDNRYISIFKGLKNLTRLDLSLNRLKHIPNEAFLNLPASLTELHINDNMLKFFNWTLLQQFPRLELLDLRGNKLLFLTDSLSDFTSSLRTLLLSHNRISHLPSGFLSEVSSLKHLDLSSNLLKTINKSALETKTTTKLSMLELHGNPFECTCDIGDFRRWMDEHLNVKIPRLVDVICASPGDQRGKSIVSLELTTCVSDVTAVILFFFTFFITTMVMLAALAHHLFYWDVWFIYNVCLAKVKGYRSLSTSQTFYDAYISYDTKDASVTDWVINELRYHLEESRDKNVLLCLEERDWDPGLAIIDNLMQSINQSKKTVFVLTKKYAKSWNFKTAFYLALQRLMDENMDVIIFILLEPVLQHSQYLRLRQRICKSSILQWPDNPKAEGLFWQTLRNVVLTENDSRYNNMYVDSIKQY

effect of other TLR ligands on adsorption of 3M-052 to aluminum oxyhydroxide ([1]; co-adsorbed GLA or TLR9 CpG control (Table 2)): did not appear to interfere
TLR Agonist Conc. In Supernatant (T = 16 wks) ([1]; no aluminum salt (control)): 74 ± 1 µg/mL
TLR Agonist Conc. In Supernatant (T = 0) ([1]; no aluminum salt (control)): 94 ± 1 µg/mL
TLR Agonist Conc. In Supernatant (T = 16 wks) ([1]; with Alhydrogel®): 10 ± 1 µg/mL
TLR Agonist Conc. In Supernatant (T = 0) ([1]; with Alhydrogel®): 11 ± 1 µg/mL
SMILES: CCCCCCCCCCCCCCCCCC(=O)NCCCCOn1c(CCCC)nc2c(N)nc3ccccc3c21 [3M-052, N-(4-{[4-amino-2-butyl-1H-imidazo[4,5-c]quinolin-1-yl]oxy}butyl)octadecanamide]
pKa [2]: ~7
activation of human TLR7 [3]: activates
activation of human TLR8 [4]: activates
